Patent publication US8563779B2, “(4-trifluoromethyl-3-thiobenzoyl)cyclohexanediones and use thereof as herbicides” (Bayer CropScience AG, priority 2010, dated 2013)

Assays:
[1] = system: PHBPU; assay: Post-emergence herbicidal action against weed plants; format: in vivo, Pharbitis purpureum; details: scored after 3 to 4 weeks under glass
Experimental: (§1) [table] 2. Post-emergence Herbicidal Action Against Weed Plants Seeds of monocotyledonous and dicotyledonous weed plants are set out in cardboard pots in sandy loam soil, covered with soil, and cultivated under glass under good growth conditions. Two to three weeks after sowing, the trial plants are treated at the three-leaf stage. The compounds according to the invention, formulated as wettable powders or as emulsifiable concentrates, are sprayed onto the surface of the green parts of the plants, at a water application rate of 600 to 800 l/ha (converted). After the trial plants have stood for 3 to 4 weeks under optimum growth conditions under glass, the action of the compounds according to the invention is scored in comparison to compounds disclosed in the prior art.

[2] = system: EPHHL; assay: as above; format: in vivo, Euphorbia heterophylla; details: dose 12.5 g a.c./ha, scored after 3 to 4 weeks under glass
Experimental: as §1

[3] = system: ALOMY; assay: Pre-emergence herbicidal action against weed plants; format: in vivo, Alopecurus myosuroides; details: dose 320 g a.c./ha, scored after 3 to 4 weeks under glass
From the text: (§2) Water-dispersible granules are also obtained by homogenizing and precomminuting, in a colloid mill, • 25 parts by weight of a compound of the formula (I), • 5 parts by weight of sodium 2,2′-dinaphthylmethane-6,6′-disulfonate, • 2 parts by weight of sodium oleoylmethyltaurinate, • 1 part by weight of polyvinyl alcohol, • 17 parts by weight of calcium carbonate and • 50 parts by weight of water, subsequently grinding the mixture in a bead mill and atomizing and drying the resulting suspension in a spray tower by means of a single-fluid nozzle. C. BIOLOGICAL EXAMPLES 1. Pre-emergence Herbicidal Action Against Weed Plants
(§3) Seeds or rhizome sections of mono- and dicotyledonous weed plants are set out in pots of 9 to 13 cm in diameter, in sandy loam soil, and are covered with soil. The herbicides, formulated as emulsifiable concentrates or dusts, are applied to the surface of the covering earth in the form of aqueous dispersions or suspensions or emulsions, at a water application rate of 300 to 800 l/ha (converted). The pots are then maintained under glass under optimum conditions for the further cultivation of the plants. After 3 to 4 weeks under optimum growth conditions under glass, the trial plants are scored for the effect of the compounds according to the invention in comparison to compounds disclosed in the prior art.

[4] = system: PAPRH; assay: Post-emergence herbicidal action against weed plants; format: in vivo, Papaver rhoeas; details: dose 50 g a.c./ha, scored after 3 to 4 weeks under glass
Experimental: as §1

[5] = system: MATIN; assay: as above; format: in vivo, Matricaria inodora; details: dose 50 g a.c./ha, scored after 3 to 4 weeks under glass
Experimental: as §1

[6] = system: PHBPU; assay: Pre-emergence herbicidal action against weed plants; format: in vivo, Pharbitis purpureum; details: dose 320 g a.c./ha, scored after 3 to 4 weeks under glass
From the text: as §2, §3

[7] = system: VIOTR; assay: as above; format: in vivo, Viola tricolor; details: dose 320 g a.c./ha, scored after 3 to 4 weeks under glass
From the text: as §2, §3

[8] = system: POLCO; assay: as above; format: in vivo, Polygonum convolvulus; details: dose 320 g a.c./ha, scored after 3 to 4 weeks under glass
From the text: as §2, §3

[9] = system: CYPES; assay: as above; format: in vivo, Cyperus serotinus; details: dose 320 g a.c./ha, scored after 3 to 4 weeks under glass
From the text: as §2, §3

[10] = system: ALOMY; assay: Post-emergence herbicidal action against weed plants; format: in vivo, Alopecurus myosuroides; details: dose 80 g a.c./ha, scored after 3 to 4 weeks under glass
Experimental: as §1

[11] = system: AMARE; assay: Pre-emergence herbicidal action against weed plants; format: in vivo; details: dose 320 g a.c./ha, scored after 3 to 4 weeks under glass
From the text: as §2, §3

[12] = system: LOLMU; assay: as above; format: in vivo, Lolium multiflorum; details: dose 320 g a.c./ha, scored after 3 to 4 weeks under glass
From the text: as §2, §3

[13] = system: ABUTH; assay: Post-emergence herbicidal action against weed plants; format: in vivo, Abutilon theophrasti; details: dose 80 g a.c./ha, scored after 3 to 4 weeks under glass
Experimental: as §1

[14] = system: LOLMU; assay: as above; format: in vivo, Lolium multiflorum; details: dose 80 g a.c./ha, scored after 3 to 4 weeks under glass
Experimental: as §1

[15] = system: AMARE; assay: as above; format: in vivo; details: dose 80 g a.c./ha, scored after 3 to 4 weeks under glass
Experimental: as §1, with “2.” for “[table] 2.”

For `Cc1c(C(=O)c2cnn(C)c2O)ccc(C(F)(F)F)c1S(C)(=O)=O`, the “Herbicidal action against PHBPU” value ([1]; dose 12.5 g a.c./ha) was 50% and the “Herbicidal action against EPHHL” value [2] was 45%.
For `Cc1c(C(=O)c2cnn(C)c2O)ccc(C(F)(F)F)c1[S+](C)[O-]` (stereo not shown), the “Herbicidal action against ALOMY” value [3] was 70%, the “Herbicidal action against PAPRH” value [4] was 55% and the “Herbicidal action against MATIN” value [5] was 74%. The “Herbicidal action against PHBPU” value [6] was 50% and the “Herbicidal action against VIOTR” value [7] was 90%.
In the case of `CCn1ncc(C(=O)c2ccc(C(F)(F)F)c(S(C)(=O)=O)c2C)c1O`, the “Herbicidal action against POLCO” value [8] is reported as 60%, the “Herbicidal action against ALOMY” value [3] is reported as 50% and the “Herbicidal action against CYPES” value [9] is reported as 60%.
With `CCn1ncc(C(=O)c2ccc(C(F)(F)F)c([S+](C)[O-])c2C)c1O` (stereo not shown) the “Herbicidal action against ALOMY” value [3] was 70%, the “Herbicidal action against PHBPU” value ([1]; dose 80 g a.c./ha) was 80% and the “Herbicidal action against PHBPU” value [6] was 0%. The “Herbicidal action against ALOMY” value [10] was 60%.
With `Cc1nn(C)c(O)c1C(=O)c1ccc(C(F)(F)F)c(S(C)(=O)=O)c1C` the “Herbicidal action against ALOMY” value [3] was 50%, the “Herbicidal action against AMARE” value [11] was 90% and the “Herbicidal action against CYPES” value [9] was 50%.
`Cc1nn(C)c(O)c1C(=O)c1ccc(C(F)(F)F)c([S+](C)[O-])c1C` (stereo not shown) was tested, and the “Herbicidal action against LOLMU” value [12] was 60%, the “Herbicidal action against ABUTH” value [13] was 80% and the “Herbicidal action against LOLMU” value [14] was 30%. For the same compound, the “Herbicidal action against ALOMY” value [3] was 60%, the “Herbicidal action against AMARE” value [15] was 50% and the “Herbicidal action against VIOTR” value [7] was 40%.
For `Cc1c(C(=O)C2C(=O)C3CCC(C3)C2=O)ccc(C(F)(F)F)c1[S+](C)[O-]` (stereo not shown) [inventive compound No. 1-9], the “Herbicidal action against LOLMU” value [12] was 90%, the “Herbicidal action against ABUTH” value [13] was 100% and the “Herbicidal action against LOLMU” value [14] was 80%. The “Herbicidal action against ALOMY” value [3] was 100%, the “Herbicidal action against PAPRH” value [4] was 95% and the “Herbicidal action against PHBPU” value ([1]; dose 80 g a.c./ha) was 90%. For the same compound, the “Herbicidal action against AMARE” value [15] was 90%, the “Herbicidal action against MATIN” value [5] was 95% and the “Herbicidal action against PHBPU” value [6] was 80%. The “Herbicidal action against ALOMY” value [10] was 80% and the “Herbicidal action against VIOTR” value [7] was 100%.
In the case of `Cc1c(C(=O)C2C(=O)C3CCC(C3)C2=O)ccc(C(F)(F)F)c1S(C)(=O)=O` (stereo not shown) [inventive compound No. 1-17], the “Herbicidal action against POLCO” value [8] is reported as 100%, the “Herbicidal action against ALOMY” value [3] is reported as 90% and the “Herbicidal action against PHBPU” value ([1]; dose 12.5 g a.c./ha) is reported as 85%. The “Herbicidal action against EPHHL” value [2] was 85%, the “Herbicidal action against AMARE” value [11] was 100% and the “Herbicidal action against CYPES” value [9] was 90%.
